The source made the active and inactive calls. No cut-off for these calls is given here.
Legend:
Smooth muscle cell = assay: Ant-icalcification activity in human aortic Smooth muscle cell at 10 uM measured after 14 days with replacement of fresh medium for every 2 to 3 days by Alizarin red S staining based analysis; format: functional; conditions: time 14.0 day
[1] = molecular target: T1, Coagulation factor XII (Homo sapiens) (UniProt P00748); assay: Binding affinity to FXIIa (unknown origin) assessed as Kinact/Ki using H-D-Pro-Phe-Arg-pNA.2HCl as substrate by spectrophotometric analysis
T1 sequence (whole entry): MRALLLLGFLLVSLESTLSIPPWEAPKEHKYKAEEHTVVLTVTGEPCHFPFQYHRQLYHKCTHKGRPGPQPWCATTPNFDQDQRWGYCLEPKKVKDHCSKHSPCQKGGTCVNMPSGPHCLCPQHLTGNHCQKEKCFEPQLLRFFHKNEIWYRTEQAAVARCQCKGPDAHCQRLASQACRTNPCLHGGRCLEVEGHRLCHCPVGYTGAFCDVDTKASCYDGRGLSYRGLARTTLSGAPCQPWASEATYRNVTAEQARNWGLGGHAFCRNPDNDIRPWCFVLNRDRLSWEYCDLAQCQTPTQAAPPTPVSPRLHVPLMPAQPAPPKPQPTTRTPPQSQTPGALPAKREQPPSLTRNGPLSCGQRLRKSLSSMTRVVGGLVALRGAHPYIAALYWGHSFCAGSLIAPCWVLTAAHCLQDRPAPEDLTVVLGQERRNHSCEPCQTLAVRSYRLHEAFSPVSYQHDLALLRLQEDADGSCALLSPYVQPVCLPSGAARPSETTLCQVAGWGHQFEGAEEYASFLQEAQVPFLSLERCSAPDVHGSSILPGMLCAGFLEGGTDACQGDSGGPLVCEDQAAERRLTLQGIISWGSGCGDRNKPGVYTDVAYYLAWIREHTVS

[2] = Clearance in BALB/c mouse at 1 mg/kg, iv measured upto 24 hrs by LC-MS/MS analysis; format: ADME, organism-based; conditions: in vivo
[3] = MRT(0 to infinity) in BALB/c mouse at 5 mg/kg, po measured upto 24 hrs by LC-MS/MS analysis; format: ADME, organism-based; conditions: in vivo
Mus musculus = assay: Antiinflammatory activity in carrageenan-induced thrombosis in male BALB/c mouse model assessed as reduction in IL-6 level at 10 to 30 mg/kg, po by ELISA method; format: functional, organism-based; conditions: dose 10-30 mg/kg
[4] = Toxicity in BALB/c mouse assessed as effect on kidney at 60 to 100 mg/kg, po measured after 14 days by H and E staining based analysis; format: organism-based; conditions: in vivo, 336 h, dose 60-100 mg/kg, time 14 day
[5] = Toxicity in BALB/c mouse assessed as effect on CREA level in serum at 60 to 100 mg/kg, po measured after 14 days; format: organism-based; conditions: in vivo, 336 h, dose 60-100 mg/kg, time 14 day

Row | K [1] | CL [2] | MRT inf [3] | SMILES | Activity (Smooth muscle cell) | Activity (Mus musculus) | Activity [4] | Activity [5]
1 |  |  |  | CC(C)N1CCN(c2ccc(C(=O)n3nc(-c4ccccn4)nc3N)c3ccccc23)CC1 | Active |  |  | 
2 | 2.37 10^6/M/min | 1270 mL/min/kg | 1.6 h | CC(C)N1CCCN(c2ccc(C(=O)n3nc(-c4ccccn4)nc3N)c3ccccc23)CC1 |  | Active | Non-Toxic | Non-Toxic

— ChEMBL document CHEMBL5500412, “Discovery of Highly Selective, Potent, Covalent, and Orally Bioavailable Factor XIIa Inhibitors for the Treatment of Thrombo-Inflammation” (J Med Chem, 2024)
